Here are results for three compounds from patent US12454509B2, “Local anesthetics with selective-sensory nerve blockade” (Children's Medical Center Corporation, priority 2019, dated 2025).

The test system of one series is C2C12 Mouse myoblasts. The series can be described thus: Cytotoxicity in C2C12 myotubules. In kind it is cell-based. Particulars: C2C12 cells; for cytotoxicity compared with ropivacaine and bupivacaine (in words): FIG. 2 / Table 2; for IC50: Mus musculus, cytotoxicity, exposure up to 24 h. Here is the method: (§1) C2C12 Mouse myoblasts [American Type Culture Collection (ATCC) CRL-1772] were cultured to proliferate in DMEM supplemented with 20% FBS and 100 Penicillin Streptomycin. Cell culture supplies were obtained from Invitrogen, unless otherwise noted. Cells were plated at 50,000 cells per mL in DMEM with 2% horse serum and 1% Penn Strep, and left to differentiate into myotubules for 10-14 days. During differentiation, media were exchanged every 2 to 3 days. Cell viability and proliferation were studied after exposures to drugs for up to 24 h. PC12 cells (ATCC, CRL-1721) originating from rat adrenal gland pheochromocytoma were grown in 24-well tissue culture dishes (CellBind; Corning) with F-12K (ATCC) supplemented with 12.5% horse serum (Gibco), 2.5% FBS (Gibco), and 1% Penn Strep (Sigma). For neuronal induction (PC12), cells were seeded at a relative low density of 5×10^4 cells/cm2 and 50 ng/mL NGF was added 24 h after seeding. Cell viability and proliferation were evaluated as for C2C12 cells. Experiments with PC12 cells were conducted for up to 24 hours.

In the next series the target is peak Nav1.5 (Homo sapiens, UniProt Q14524). Put plainly: Whole-cell patch clamp, peak Nav1.5 current in stably transfected HEK cells. As to conditions: for peak Nav1.5 current amplitude, percent reduction: individual cell (raw data); for inhibition at 1 µM: HEK293, read-out: peak Nav1.5 current amplitude, percent reduction, 1 μM, individual cell (raw data); for inhibition at 10 µM: HEK293, read-out: peak Nav1.5 current amplitude, percent reduction, 10 μM, individual cell (raw data); for inhibition at 1000 µM: HEK293, read-out: peak Nav1.5 current amplitude, percent reduction, 1000 μM, individual cell (raw data); for inhibition at 100 µM: HEK293, read-out: peak Nav1.5 current amplitude, percent reduction, 100 μM, individual cell (raw data). How it is done: (§2) These experiments were designed to examine the acute effects of 4Sa (ZYK2312-1), 4Sb (ZYK2312-2), and bupivacaine on hERG and peak Nav1.5 currents recorded from stably transfected HEK cells.
Chain of peak Nav1.5 (Q14524 whole entry): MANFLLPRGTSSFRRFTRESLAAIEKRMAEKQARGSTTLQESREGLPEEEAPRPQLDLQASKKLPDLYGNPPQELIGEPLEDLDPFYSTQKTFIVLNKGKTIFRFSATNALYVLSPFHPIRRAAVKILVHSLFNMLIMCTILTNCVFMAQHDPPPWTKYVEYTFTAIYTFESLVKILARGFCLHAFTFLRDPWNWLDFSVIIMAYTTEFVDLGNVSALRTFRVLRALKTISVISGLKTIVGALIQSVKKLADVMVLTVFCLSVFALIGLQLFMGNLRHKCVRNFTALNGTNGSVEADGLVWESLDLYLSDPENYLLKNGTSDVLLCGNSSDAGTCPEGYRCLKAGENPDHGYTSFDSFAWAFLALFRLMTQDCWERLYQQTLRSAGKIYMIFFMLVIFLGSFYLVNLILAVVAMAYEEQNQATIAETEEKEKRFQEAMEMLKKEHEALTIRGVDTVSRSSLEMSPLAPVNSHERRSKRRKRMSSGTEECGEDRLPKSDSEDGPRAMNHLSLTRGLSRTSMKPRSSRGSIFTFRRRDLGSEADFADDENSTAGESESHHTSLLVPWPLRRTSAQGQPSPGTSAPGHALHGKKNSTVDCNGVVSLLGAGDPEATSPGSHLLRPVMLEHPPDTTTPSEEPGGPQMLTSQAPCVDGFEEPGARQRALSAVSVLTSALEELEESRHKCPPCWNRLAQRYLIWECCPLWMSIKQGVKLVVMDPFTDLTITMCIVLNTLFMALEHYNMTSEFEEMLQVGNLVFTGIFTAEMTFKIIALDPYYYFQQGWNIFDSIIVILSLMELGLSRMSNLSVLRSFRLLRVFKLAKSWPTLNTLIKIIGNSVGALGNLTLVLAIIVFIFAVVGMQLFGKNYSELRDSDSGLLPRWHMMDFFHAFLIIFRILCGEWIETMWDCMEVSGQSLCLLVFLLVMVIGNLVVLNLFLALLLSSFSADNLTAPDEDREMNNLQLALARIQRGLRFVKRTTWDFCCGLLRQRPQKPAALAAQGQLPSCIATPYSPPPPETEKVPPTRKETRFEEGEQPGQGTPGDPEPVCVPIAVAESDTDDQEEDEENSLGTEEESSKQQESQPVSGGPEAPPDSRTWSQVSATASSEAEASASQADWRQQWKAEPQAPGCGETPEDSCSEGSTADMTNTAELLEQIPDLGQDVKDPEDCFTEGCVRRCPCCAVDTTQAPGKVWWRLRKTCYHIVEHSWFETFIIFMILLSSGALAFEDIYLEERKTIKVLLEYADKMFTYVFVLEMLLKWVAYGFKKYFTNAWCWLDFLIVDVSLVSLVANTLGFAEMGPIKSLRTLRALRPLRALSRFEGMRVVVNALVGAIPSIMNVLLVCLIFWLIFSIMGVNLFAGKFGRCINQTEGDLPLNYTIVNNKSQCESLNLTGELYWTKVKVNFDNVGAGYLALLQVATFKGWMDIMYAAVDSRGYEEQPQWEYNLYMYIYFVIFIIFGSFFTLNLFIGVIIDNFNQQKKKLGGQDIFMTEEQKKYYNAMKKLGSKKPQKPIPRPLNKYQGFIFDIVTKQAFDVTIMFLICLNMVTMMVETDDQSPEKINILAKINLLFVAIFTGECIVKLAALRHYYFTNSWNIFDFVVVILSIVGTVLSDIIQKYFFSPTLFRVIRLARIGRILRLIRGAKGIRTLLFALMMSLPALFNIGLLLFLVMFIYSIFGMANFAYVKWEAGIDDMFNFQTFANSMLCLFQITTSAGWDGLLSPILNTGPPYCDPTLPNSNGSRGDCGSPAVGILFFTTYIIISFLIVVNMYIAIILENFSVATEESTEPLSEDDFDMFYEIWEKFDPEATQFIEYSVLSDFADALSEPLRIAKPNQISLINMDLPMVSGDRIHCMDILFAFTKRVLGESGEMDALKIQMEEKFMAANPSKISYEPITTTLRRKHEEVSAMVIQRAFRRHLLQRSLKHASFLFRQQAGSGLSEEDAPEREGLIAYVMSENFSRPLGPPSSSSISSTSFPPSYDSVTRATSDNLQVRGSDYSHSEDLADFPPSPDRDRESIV
(§3) Experimental Methods: Currents were measured using the whole-cell variant of the patch clamp method. Glass pipettes were pulled from borosilicate glass by a horizontal puller (Sutter Instruments, USA). Pipette tip resistance was approximately 1 to 2 MΩ when filled with internal solutions. Series resistance was compensated electronically by approximately 60-80%. Bath temperature was measured by a thermistor placed near the cell under study. An Axopatch 1-B amplifier (Axon Instruments, Foster City, CA) was used for whole-cell voltage clamping. Creation of voltage clamp pulses and data acquisition was controlled by a computer running pClamp software (ver 9.2 Axon Instruments). After rupture of the cell membrane (entering whole-cell mode), current kinetics and amplitudes were allowed to stabilize as the cell was dialyzed with internal solution and paced every 5 seconds (typically 2 to 3 minutes). Peak INa was elicited using a pulse pattern with fixed amplitudes (conditioning prepulse: −120 mV for 50 ms; depolarizing test step to −30 mV for 20 ms). hERG current was elicited with a 500 ms pulse to +10 mV followed by a 500 ms pulse to −40 mV (holding potential=[…]). Cells were perfused at each testing concentration until a steady-state was reached.
(§4) Raw data and mean±SEM are given. Data are presented as percent reduction of current amplitude. […] Each cell served as its own control. A nonlinear curve-fitting routine was utilized to fit a three-parameter Hill equation to the results using MicroCal Origin, version 6.0 software. The equation is:
(§5) [formula] where Vmax=100 and k and n are unconstrained variables.
(In patch-clamp work, channel activity is measured electrically.)

In another series the test system is PC12 cells. The series can be described thus: Cytotoxicity in PC12 cells. In kind it is cell-based, rat. As to conditions: for cytotoxicity compared with ropivacaine and bupivacaine (in words): FIG. 1 / Table 2; for IC50: Rattus norvegicus, PC-12, cytotoxicity, exposure up to 24 h. How it is done:
as §1

Series [1] deals with sciatic nerve. The series can be described thus: Sciatic nerve block in rats: duration of thermal nociceptive (sensory) block, modified hotplate test. Type of series: in vivo, rat. As to conditions: for Block Duration (min) Sensory: rat sciatic nerve injection 0.3 mL; for Sensory:Motor Block Ratio: rat sciatic nerve block. The text has this:
(§6) Sciatic Nerve Block and Neurobehavioral Testing. Animals were cared for in compliance with protocols approved by the Children's Hospital Animal Care and Use Committee, and the Massachusetts Institute of Technology Committee on Animal Care, which conformed to guidelines of the International Association for the Study of Pain. Adult male Sprague-Dawley rats (Charles River Laboratories) weighing 320-450 g were housed in groups, in a 6 AM to 6 PM light-dark cycle. Under brief isoflurane-oxygen anesthesia, a 23G needle was introduced postero-medial to the greater trochanter, until bone was contacted, and 0.3 mL of test solution was injected over the sciatic nerve. Thermal nociception was assessed by a modified hotplate test, and motor function via a weight-bearing test. […] Motor strength was assessed with a weight-bearing test. In brief, the animal was held over a digital balance such that it could bear weight with 1 hind paw at a time. The maximum weight that it could bear was recorded. The duration of motor blockade was defined as the time for weight bearing to return halfway to normal from maximal block. The halfway point for each rat was defined as […].

Series [2] concerns sciatic nerve. The series can be described thus: Sciatic nerve block in rats: duration of motor block, weight-bearing test. In kind it is in vivo. As to conditions: rat sciatic nerve injection 0.3 mL.
Text: as §6

The next series has as its target hERG (Homo sapiens, UniProt Q12809). The series can be described thus: Whole-cell patch clamp, hERG current in stably transfected HEK cells. How it is done: as §2, §3, §4, §5

Several values for one entry are separate records, joined by “and”; a condition that tells them apart may be missing. Identical values can stand only once.

Chain of hERG (Q12809 whole entry): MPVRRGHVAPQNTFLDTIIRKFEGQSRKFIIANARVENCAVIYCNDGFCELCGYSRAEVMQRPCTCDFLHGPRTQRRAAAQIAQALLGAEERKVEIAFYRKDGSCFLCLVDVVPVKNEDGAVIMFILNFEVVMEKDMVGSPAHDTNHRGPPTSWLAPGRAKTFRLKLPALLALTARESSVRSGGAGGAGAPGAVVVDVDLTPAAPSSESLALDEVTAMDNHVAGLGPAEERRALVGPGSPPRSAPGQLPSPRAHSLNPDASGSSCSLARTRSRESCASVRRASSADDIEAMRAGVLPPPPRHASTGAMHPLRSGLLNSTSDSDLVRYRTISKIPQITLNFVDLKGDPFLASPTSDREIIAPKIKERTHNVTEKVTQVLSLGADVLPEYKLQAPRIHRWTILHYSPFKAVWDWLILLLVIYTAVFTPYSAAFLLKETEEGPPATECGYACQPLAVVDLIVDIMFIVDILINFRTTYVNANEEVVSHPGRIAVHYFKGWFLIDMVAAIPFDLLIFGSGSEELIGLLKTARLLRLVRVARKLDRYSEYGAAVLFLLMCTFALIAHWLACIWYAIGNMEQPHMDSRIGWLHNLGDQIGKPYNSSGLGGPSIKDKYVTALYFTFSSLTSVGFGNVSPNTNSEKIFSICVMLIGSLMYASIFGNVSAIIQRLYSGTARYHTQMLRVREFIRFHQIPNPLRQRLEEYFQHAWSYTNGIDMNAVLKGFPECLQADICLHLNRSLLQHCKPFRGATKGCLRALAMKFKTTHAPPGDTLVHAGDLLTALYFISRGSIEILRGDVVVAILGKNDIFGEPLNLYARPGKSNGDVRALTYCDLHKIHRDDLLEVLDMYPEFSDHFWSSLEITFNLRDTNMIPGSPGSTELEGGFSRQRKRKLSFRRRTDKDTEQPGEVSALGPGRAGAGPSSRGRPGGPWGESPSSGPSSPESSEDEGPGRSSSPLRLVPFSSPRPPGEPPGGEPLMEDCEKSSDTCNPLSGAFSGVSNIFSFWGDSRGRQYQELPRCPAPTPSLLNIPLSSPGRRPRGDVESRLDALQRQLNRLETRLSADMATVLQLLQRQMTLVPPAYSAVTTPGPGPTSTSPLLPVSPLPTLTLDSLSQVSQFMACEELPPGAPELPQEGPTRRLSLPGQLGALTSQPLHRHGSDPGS

The IC50 is the concentration needed to halve the response being measured. Regarding `CCC[N@+]1(CC(=O)OC)CCCC[C@H]1C(=O)Nc1c(C)cccc1C.[Br-]` [Compound 4Sa, 2-((2,6-Dimethylphenyl)carbamoyl)-1-(2-methoxy-2-oxoethyl)-1-propylpiperidin-1-ium bromide], the “cytotoxicity compared with ropivacaine and bupivacaine (in words)” value with C2C12 Mouse myoblasts was “significantly less cytotoxic than ropivacaine and bupivacaine”; in the series with PC12 cells it was “significantly less cytotoxic than ropivacaine and bupivacaine”. The IC50 in the series with C2C12 Mouse myoblasts is 14600 µM; in the series with PC12 cells, 19200 µM; against hERG it was 814 µM. The “peak Nav1.5 current amplitude, percent reduction” value on peak Nav1.5 (1 μM) and at peak Nav1.5 (10 μM) was 0% each time. The “peak Nav1.5 current amplitude, percent reduction, mean ± SE” value at peak Nav1.5 (1 μM) is 0 ± 0%; on peak Nav1.5 (10 μM), 0 ± 0%; at peak Nav1.5 (100 μM) it was 2.3 ± 1.4%; on peak Nav1.5 (300 μM) it was 5.6 ± 1.8%; on peak Nav1.5 (1000 μM), 14.6 ± 3.4%. Moreover, the inhibition at 1 µM at peak Nav1.5 was found to be 0%. Further, at peak Nav1.5, the inhibition at 10 µM was found to be 0%. The inhibition at 300 µM at peak Nav1.5 (HEK293, read-out: peak Nav1.5 current amplitude, percent reduction, 300 μM, individual cell (raw data)) turned out to be 3.7%. Further, at peak Nav1.5, the inhibition at 1000 µM is 11.2%. Besides, in the series with sciatic nerve [1] (dose conc 10 mM), the “Block Duration (min) Sensory” value was found to be 200 ± 60 min. The “Block Duration (min) Motor” value with sciatic nerve [2] (dose conc 10 mM) is reported as 100 ± 60 min. For the same compound, on hERG (human, 1 μM), the “hERG current amplitude, percent reduction” value was 0%. In addition, the “hERG current amplitude, percent reduction, mean ± SE” value is 0 ± 0% at hERG (human, 1 μM); 3.6 ± 0.5% on hERG (human, 10 μM); 16.8 ± 4.0% at hERG (human, 100 μM); 31.3 ± 2.0% on hERG (human, 300 μM); 51.6 ± 2.2% at hERG (human, 1000 μM).
For `CCC[N@@+]1(CC(=O)OC)CCCC[C@H]1C(=O)Nc1c(C)cccc1C.[Br-]` [Compound 4Sb, 2-((2,6-Dimethylphenyl)carbamoyl)-1-(2-methoxy-2-oxoethyl)-1-propylpiperidin-1-ium bromide], the “cytotoxicity compared with ropivacaine and bupivacaine (in words)” value was “significantly less cytotoxic than ropivacaine and bupivacaine” in the series on C2C12 Mouse myoblasts; “significantly less cytotoxic than ropivacaine and bupivacaine” with PC12 cells. The values for the IC50 in the series on C2C12 Mouse myoblasts (unit inferred) and in the series on PC12 cells (unit inferred) were 19300 µM and 20100 µM, respectively. Moreover, the “peak Nav1.5 current amplitude, percent reduction” value at peak Nav1.5 (1 μM), on peak Nav1.5 (10 μM) and at peak Nav1.5 (100 μM) was 0% in each case. Besides, the “peak Nav1.5 current amplitude, percent reduction, mean ± SE” value on peak Nav1.5 (1 μM) is reported as 0 ± 0%; on peak Nav1.5 (10 μM), 0 ± 0%; on peak Nav1.5 (100 μM), 0 ± 0%; on peak Nav1.5 (300 μM) it was 4.2 ± 0.9%; on peak Nav1.5 (1000 μM) it was 13.3 ± 2.9%. Further, the inhibition at 1 µM at peak Nav1.5 is 0%. Moreover, the inhibition at 10 µM at peak Nav1.5 was determined as 0%. Besides, the inhibition at 100 µM on peak Nav1.5 came to 0%. Moreover, the inhibition at 1000 µM at peak Nav1.5 came out at 13.8%. In addition, the “Sensory:Motor Block Ratio” value in the series with sciatic nerve [1] (dose conc 10 mM) and with sciatic nerve [1] (dose conc 15 mM) was “∞” throughout. The “Block Duration (min) Sensory” value in the series with sciatic nerve [1] (dose conc 10 mM) was 90 ± 30 min; in the series on sciatic nerve [1] (dose conc 15 mM), 200 ± 30 min. For the same compound, the “Block Duration (min) Motor” value in the series with sciatic nerve [2] (dose conc 10 mM) and in the series on sciatic nerve [2] (dose conc 15 mM) was 0 min each time. Moreover, the “hERG current amplitude, percent reduction” value at hERG (human, 1 μM) was 0%; at hERG (human, 10 μM) it was 0%. Besides, the “hERG current amplitude, percent reduction, mean ± SE” value is 0 ± 0% on hERG (human, 1 μM); 0 ± 0% on hERG (human, 10 μM); 1.5 ± 0.8% on hERG (human, 100 μM); 6.4 ± 1.1% on hERG (human, 300 μM); 18.3 ± 2.9% at hERG (human, 1000 μM).
For the compound `CCCCN1CCCCC1C(=O)Nc1c(C)cccc1C` (stereo not drawn) [Bupivacaine, bupivacaine, reference compound], the half-inhibitory concentration (IC50) in the series on C2C12 Mouse myoblasts worked out at 720 µM; against peak Nav1.5 it was 9.8 µM; in the series on PC12 cells, 870 µM; at hERG, 16.4 µM. The figures for the “peak Nav1.5 current amplitude, percent reduction, mean ± SE” value at peak Nav1.5 (1 μM), on peak Nav1.5 (10 μM) and at peak Nav1.5 (100 μM) were 13.5 ± 3.1%, 49.0 ± 1.0% and 90.7 ± 1.5%, respectively. Further, the inhibition at 10 µM on peak Nav1.5 came out at 50.8%. On peak Nav1.5, the inhibition at 100 µM stood at 89.2%. The results for the “Block Duration (min) Sensory” value in the series on sciatic nerve [1] (dose conc 10 mM) and in the series with sciatic nerve [1] (dose conc 15 mM) were 129 ± 21 min and 215 ± 31 min, respectively. In addition, the “Block Duration (min) Motor” value amounted to 140 ± 15 min in the series with sciatic nerve [2] (dose conc 10 mM) and 222 ± 30 min with sciatic nerve [2] (dose conc 15 mM). Further, the “hERG current amplitude, percent reduction” value was 19.8% and 9.1% and 10.5% on hERG (1 μM, individual cell (raw data)); 43.0% and 45.0% and 42.1% at hERG (10 μM, individual cell (raw data)); 76.3% and 70.7% and 78.9% on hERG (100 μM, individual cell (raw data)). In addition, the “hERG current amplitude, percent reduction, mean ± SE” value at hERG (1 μM, mean ± SE) stood at 13.1 ± 3.4%; at hERG (10 μM, mean ± SE), 43.4 ± 0.9%; at hERG (100 μM, mean ± SE) it was 75.3 ± 2.4%.
